Source: PubChem BioAssay AID2060902 (Molecular Pharmacology Branch, DTP, NCI, 2025)

Test system: 485368-065-R3-J5-PDC spheroids with HUVEC/MSC, viability
Test: Anticancer human tumor 485368-065-R3-J5-PDC patient-derived pancreatic carcinoma cell line growth inhibition [RAS]
Conditions: for IC50: curve of first compound; for viability, T/C: stronger effect = lower value
Procedure, shortened: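 Agents were tested in combination matrices in half-log decrements from a top concentration at or near clinical Cmax (10 microM if undetermined). Targets were multi-cell spheroids of tumour lines plus HUVEC and MSC stromal cells.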

[1] = second compound 0.00316 µM, first compound 0.0316 µM
[2] = second compound 0.00316 µM, first compound 0.1 µM
[3] = second compound 0.00316 µM, first compound 0.316 µM
[4] = second compound 0.00316 µM, first compound 1 µM
[5] = second compound 0.00316 µM, first compound 3.16 µM
[6] = second compound 0.00316 µM, first compound 10 µM
[7] = second compound 0.01 µM, first compound 0.0316 µM
[8] = second compound 0.01 µM, first compound 0.1 µM
[9] = second compound 0.01 µM, first compound 0.316 µM
[10] = second compound 0.01 µM, first compound 1 µM
[11] = second compound 0.01 µM, first compound 3.16 µM
[12] = second compound 0.01 µM, first compound 10 µM
[13] = second compound 0.0316 µM, first compound 0.0316 µM
[14] = second compound 0.0316 µM, first compound 0.1 µM
[15] = second compound 0.0316 µM, first compound 0.316 µM
[16] = second compound 0.0316 µM, first compound 1 µM
[17] = second compound 0.0316 µM, first compound 3.16 µM
[18] = second compound 0.0316 µM, first compound 10 µM
[19] = second compound 0.1 µM, first compound 0.0316 µM
[20] = second compound 0.1 µM, first compound 0.1 µM
[21] = second compound 0.1 µM, first compound 0.316 µM
[22] = second compound 0.1 µM, first compound 1 µM
[23] = second compound 0.1 µM, first compound 3.16 µM
[24] = second compound 0.1 µM, first compound 10 µM
[25] = second compound 0.316 µM, first compound 0.0316 µM
[26] = second compound 0.316 µM, first compound 0.1 µM
[27] = second compound 0.316 µM, first compound 0.316 µM
[28] = second compound 0.316 µM, first compound 1 µM
[29] = second compound 0.316 µM, first compound 3.16 µM
[30] = second compound 0.316 µM, first compound 10 µM
[31] = second compound 1 µM, first compound 0.0316 µM
[32] = second compound 1 µM, first compound 0.1 µM
[33] = second compound 1 µM, first compound 0.316 µM
[34] = second compound 1 µM, first compound 1 µM
[35] = second compound 1 µM, first compound 3.16 µM
[36] = second compound 1 µM, first compound 10 µM
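Also: spheroids exposed to agents for seven days before readout.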

CC(=O)OC12COC1CC(O)C1(C)C(=O)C(O)C3=C(C)C(OC(=O)C(O)C(NC(=O)OC(C)(C)C)c4ccccc4)CC(O)(C(OC(=O)c4ccccc4)C21)C3(C)C (stereo unspecified) + C=CC(=O)N1CCN(c2nc(OCC3CCCN3C)nc3c(F)c(-c4nc(N)cc(C)c4C(F)(F)F)c(Cl)cc23)C(C)C1
IC50 (second compound 0.00316 µM): < 0.0316 µM
IC50 (second compound 0.01 µM): < 0.0316 µM
IC50 (second compound 0.0316 µM): < 0.0316 µM
IC50 (second compound 0.1 µM): < 0.0316 µM
IC50 (second compound 0.316 µM): < 0.0316 µM
IC50 (second compound 1 µM): < 0.0316 µM
viability, T/C [1]: 14.1%
viability, T/C [2]: 12.1%
viability, T/C [3]: 13.5%
viability, T/C [4]: 12.9%
viability, T/C [5]: 13.9%
viability, T/C [6]: 18.2%
viability, T/C [7]: 11.4%
viability, T/C [8]: 10.3%
viability, T/C [9]: 11.2%
viability, T/C [10]: 11.9%
viability, T/C [11]: 11.9%
viability, T/C [12]: 21.3%
viability, T/C [13]: 13.2%
viability, T/C [14]: 9.68%
viability, T/C [15]: 12.2%
viability, T/C [16]: 16%
viability, T/C [17]: 16.2%
viability, T/C [18]: 19.9%
viability, T/C [19]: 10.6%
viability, T/C [20]: 10.8%
viability, T/C [21]: 13.7%
viability, T/C [22]: 10%
viability, T/C [23]: 17.6%
viability, T/C [24]: 20.2%
viability, T/C [25]: 9.72%
viability, T/C [26]: 13.7%
viability, T/C [27]: 11.7%
viability, T/C [28]: 13%
viability, T/C [29]: 22.9%
viability, T/C [30]: 28.2%
viability, T/C [31]: 12.8%
viability, T/C [32]: 15.1%
viability, T/C [33]: 16.3%
viability, T/C [34]: 12.6%
viability, T/C [35]: 17.3%
viability, T/C [36]: 23.5%

NC1c2ccccc2OC12CCN(c1cnc3c(N4CCCc5ncccc54)n[nH]c3n1)CC2 (stereo unspecified) + C=CC(=O)N1CCN(c2nc(OCC3CCCN3C)nc3c(F)c(-c4nc(N)cc(C)c4C(F)(F)F)c(Cl)cc23)C(C)C1
IC50 (second compound 0.00316 µM): > 10 µM
IC50 (second compound 0.01 µM): > 10 µM
IC50 (second compound 0.0316 µM): > 10 µM
IC50 (second compound 0.1 µM): > 10 µM
IC50 (second compound 0.316 µM): > 10 µM
IC50 (second compound 1 µM): > 10 µM
viability, T/C [1]: 83.2%
viability, T/C [2]: 60.2%
viability, T/C [3]: 78.5%
viability, T/C [4]: 72.2%
viability, T/C [5]: 67%
viability, T/C [6]: 69.8%
viability, T/C [7]: 87.7%
viability, T/C [8]: 76.8%
viability, T/C [9]: 67.5%
viability, T/C [10]: 64.4%
viability, T/C [11]: 77%
viability, T/C [12]: 65.7%
viability, T/C [13]: 81.2%
viability, T/C [14]: 88.2%
viability, T/C [15]: 64.1%
viability, T/C [16]: 67.4%
viability, T/C [17]: 72.5%
viability, T/C [18]: 69.8%
viability, T/C [19]: 82.4%
viability, T/C [20]: 75.8%
viability, T/C [21]: 61.1%
viability, T/C [22]: 74.9%
viability, T/C [23]: 78%
viability, T/C [24]: 74.6%
viability, T/C [25]: 72.1%
viability, T/C [26]: 79.2%
viability, T/C [27]: 75.1%
viability, T/C [28]: 64.1%
viability, T/C [29]: 73.1%
viability, T/C [30]: 60.4%
viability, T/C [31]: 84.7%
viability, T/C [32]: 77.5%
viability, T/C [33]: 72.9%
viability, T/C [34]: 60.6%
viability, T/C [35]: 60.7%
viability, T/C [36]: 54.9%

Nc1ccn(C2OC(CO)C(O)C2(F)F)c(=O)n1 (stereo unspecified) + C=CC(=O)N1CCN(c2nc(OCC3CCCN3C)nc3c(F)c(-c4nc(N)cc(C)c4C(F)(F)F)c(Cl)cc23)C(C)C1
IC50 (second compound 0.00316 µM): 0.00642 µM
IC50 (second compound 0.01 µM): 0.00643 µM
IC50 (second compound 0.0316 µM): 0.0065 µM
IC50 (second compound 0.1 µM): 0.00618 µM
IC50 (second compound 0.316 µM): 0.00626 µM
IC50 (second compound 1 µM): 0.0061 µM
viability, T/C (second compound 0.00316 µM, first compound 0.00316 µM): 107%
viability, T/C (second compound 0.00316 µM, first compound 0.01 µM): 14.7%
viability, T/C [1]: 10.7%
viability, T/C [2]: 9.52%
viability, T/C [3]: 8.08%
viability, T/C [4]: 10.4%
viability, T/C (second compound 0.01 µM, first compound 0.00316 µM): 104%
viability, T/C (second compound 0.01 µM, first compound 0.01 µM): 16.8%
viability, T/C [7]: 9.83%
viability, T/C [8]: 7.76%
viability, T/C [9]: 10.4%
viability, T/C [10]: 9.94%
viability, T/C (second compound 0.0316 µM, first compound 0.00316 µM): 103%
viability, T/C (second compound 0.0316 µM, first compound 0.01 µM): 18.4%
viability, T/C [13]: 12.1%
viability, T/C [14]: 9.22%
viability, T/C [15]: 9.83%
viability, T/C [16]: 10.7%
viability, T/C (second compound 0.1 µM, first compound 0.00316 µM): 97%
viability, T/C (second compound 0.1 µM, first compound 0.01 µM): 16.3%
viability, T/C [19]: 9.86%
viability, T/C [20]: 7.88%
viability, T/C [21]: 9.19%
viability, T/C [22]: 9.27%
viability, T/C (second compound 0.316 µM, first compound 0.00316 µM): 101%
viability, T/C (second compound 0.316 µM, first compound 0.01 µM): 15.3%
viability, T/C [25]: 8.44%
viability, T/C [26]: 8.63%
viability, T/C [27]: 9.97%
viability, T/C [28]: 11%
viability, T/C (second compound 1 µM, first compound 0.00316 µM): 89.7%
viability, T/C (second compound 1 µM, first compound 0.01 µM): 20.2%
viability, T/C [31]: 11.6%
viability, T/C [32]: 9.69%
viability, T/C [33]: 11.4%
viability, T/C [34]: 11.8%
